Where a name gives a salt, the structure may show the parent alone.

Assay [1] relates to Enterobacter cloacae BAA-2341 (KPC). Kind of assay: In vitro antibacterial activity, agar dilution MIC. The conditions noted are these: BAA2341; Table 2; BAA-2341 Enterobacter cloacae, KPC; read-out: MIC. Type of assay: cell-based. From the text: (§1) Experimental strains: all experimental standard bacterial strains for enzyme production were purchased from ATCC, and the clinically separated CRE strain was purchased from Southwest Hospital of the Third Military Medical University.
(§2) Experimental Method: Agar dilution method, referring to M100-S23: Performance Standards for Antimicrobial Susceptibility Testing: Twenty-Third Informational Supplement (Clinical And Laboratory Standards Institute, 2013). Minimal inhibitory concentration (MIC, μg/mL) was calculated.

For assay [2], the system named is Enterobacter hormaechei BAA-2082 (KPC). Kind of assay: In vitro antibacterial activity, agar dilution MIC. Type of assay: cell-based. The note with it: BAA2082; Table 2; BAA-2082 Enterobacter hormaechei, KPC; read-out: MIC.
Description: as §1, §2
On the technique in general: In agar dilution, organisms are placed on agar that contains the substance at set levels.

Assay [3] concerns Escherichia coli BAA-2452 (NDM-1). Kind of assay: In vitro antibacterial activity, agar dilution MIC. Type of assay: cell-based. The conditions noted are these: BAA2452, Table 2, BAA-2452 Escherichia coli, NDM-1, read-out: MIC.
Description: as §1, §2

In assay [4] the test system is Escherichia coli BAA-2523 (OXA-48). Description: In vitro antibacterial activity, agar dilution MIC. Type of assay: cell-based. The conditions noted are these: BAA2523, Table 2, BAA-2523 Escherichia coli, OXA-48, read-out: MIC.
Description: as §1, §2

For assay [5], the system named is Klebsiella oxytoca ATCC-51983 (SHV-5). Kind of assay: In vitro antibacterial activity, agar dilution MIC. In kind it is cell-based. The note with it: ATCC51983; Table 2; ATCC-51983 Klebsiella oxytoca, SHV-5; read-out: MIC.
Description: as §1, §2

In assay [6] the test system is Klebsiella pneumoniae BAA-1900 (KPC). Kind of assay: In vitro antibacterial activity, agar dilution MIC. In kind it is cell-based. The note with it: BAA1900, Table 2, BAA-1900 Klebsiella pneumoniae, KPC, read-out: MIC.
Description: as §1, §2

The subject of assay [7] is Klebsiella pneumoniae BAA-2146 (NDM-1). Description: In vitro antibacterial activity, agar dilution MIC. Type of assay: cell-based. The note with it: BAA2146, Table 2, BAA-2146 Klebsiella pneumoniae, NDM-1, read-out: MIC.
Description: as §1, §2

In assay [8] the test system is Klebsiella pneumoniae BAA-2524 (OXA-48). Description: In vitro antibacterial activity, agar dilution MIC. The note with it: BAA2524; Table 2; BAA-2524 Klebsiella pneumoniae, OXA-48; read-out: MIC. Type of assay: cell-based.
Description: as §1, §2

Assay [9] has as its system Citrobacter freundii 7520cfr-167 (NDM, OXA-10, ESBLs). Description: In vitro antibacterial activity on clinically separated CRE strain, agar dilution MIC. In kind it is cell-based. The conditions noted are these: Table 3, 7520cfr-167 Citrobacter freundii.
Description: as §1, §2

Assay [10] concerns Citrobacter freundii 7521cfr-169 (NDM, ESBLs, AmpC). The assay is described as above. The note with it: Table 3, 7521cfr-169 Citrobacter freundii. In kind it is cell-based.
Description: as §1, §2

Assay [11] relates to Enterobacter cloacae 7494ecl-295 (NDM, ESBLs, AmpC). Described as above. In kind it is cell-based. The note with it: Table 3, 7494ecl-295 Enterobacter cloacae.
Description: as §1, §2

Assay [12] has as its system Enterobacter cloacae 7495ecl-296 (IMP, ESBLs, AmpC). The assay is described as above. Type of assay: cell-based. The note with it: Table 3, 7495ecl-296 Enterobacter cloacae.
Description: as §1, §2

Assay [13] concerns Enterobacter cloacae 7498ecl-299 (ESBLs, AmpC). Described as above. The note with it: Table 3, 7498ecl-299 Enterobacter cloacae. Type of assay: cell-based.
Description: as §1, §2

Assay [14] deals with Enterobacter cloacae 7513ecl-314 (AmpC). The description is as above. Type of assay: cell-based. The conditions noted are these: Table 3, 7513ecl-314 Enterobacter cloacae.
Description: as §1, §2

The subject of assay [15] is Escherichia coli 7438eco-639 (NDM, ESBLs). The assay is described as above. The note with it: Table 3, 7438eco-639 Escherichia coli. In kind it is cell-based.
Description: as §1, §2

The subject of assay [16] is Klebsiella pneumoniae 7450kpn-597 (KPC, ESBLs). The assay is described as above. In kind it is cell-based. The note with it: Table 3, 7450kpn-597 Klebsiella pneumoniae.
Description: as §1, §2

For assay [17], the system named is Klebsiella pneumoniae 7463kpn-610 (ESBLs). The description is as above. In kind it is cell-based. The conditions noted are these: Table 3, 7463kpn-610 Klebsiella pneumoniae.
Description: as §1, §2

Assay [18] relates to Klebsiella pneumoniae 7484kpn-631 (IMP, ESBLs). Described as above. The conditions noted are these: Table 3, 7484kpn-631 Klebsiella pneumoniae. In kind it is cell-based.
Description: as §1, §2

Another assay addresses T1, AmpC (UniProt P05364).
T1 construct: The concentration of purchased β-lactamases mother liquor was 1 mg/mL, and the mother liquor was dissolved in 50% glycerol
Description: β-lactamase inhibition, Nitrocefin hydrolysis. In kind it is biochemical. The conditions noted are these: read-out: IC50 AmpC; Experiment 2; enzyme 1.6 nM, Nitrocefin 0.1 mM. The procedure:
(§3) Nitrocefin, a kind of cephalosporin antibiotics, is sensitive to most of β-lactamases, and changes in color after being hydrolyzed. The hydrolysis rate of Nitrocefin was measured by real-time recording corresponding absorbance of reaction system. β-Lactamase inhibitors could inhibit hydrolysis of the enzymes to Nitrocefin, and reduce hydrolysis rate. By measuring reaction rates in the same reaction system under different inhibitor concentrations, the IC50 (half maximal inhibitory concentration) values of inhibitors were calculated.
(§4) Nitrocefin was dissolved in DMSO to form a solution with concentration of 2 mM, which was sub-packaged and stored at −20° C. The concentration of purchased β-lactamases mother liquor was 1 mg/mL, and the mother liquor was dissolved in 50% glycerol. A part of mother liquor was taken and diluted by 1000 times in reaction solution, sub-packaged and stored at ˜20° C.
(§5) The compounds to be tested were dissolved in DMSO to form a mother liquor with concentration of 10 mM. If not used that day, the mother liquor was stored at −20° C. Its test final concentrations were: 100 μM, 25 μM, 6.25 μM, 1.563 μM, 390.6 nM, 97.66 nM, 24.41 nM, 6.10 nM, 1.53 nM, 0.381 nM, 0.095 nM.

A further assay concerns the target T2, CTX-M-1 (Escherichia coli, UniProt P28585).
T2 construct: purchased
Description: β-lactamase inhibition, Nitrocefin hydrolysis. Type of assay: biochemical. The conditions noted are these: Experiment 2; enzyme 0.2 nM, Nitrocefin 0.1 mM. The procedure: as §3, §4, §5

In the next assay the target is T3, KPC-2 (Klebsiella pneumoniae, UniProt Q9F663).
T3 construct: purchased
T3 sequence (Q9F663 25-293, looked up, species assumed): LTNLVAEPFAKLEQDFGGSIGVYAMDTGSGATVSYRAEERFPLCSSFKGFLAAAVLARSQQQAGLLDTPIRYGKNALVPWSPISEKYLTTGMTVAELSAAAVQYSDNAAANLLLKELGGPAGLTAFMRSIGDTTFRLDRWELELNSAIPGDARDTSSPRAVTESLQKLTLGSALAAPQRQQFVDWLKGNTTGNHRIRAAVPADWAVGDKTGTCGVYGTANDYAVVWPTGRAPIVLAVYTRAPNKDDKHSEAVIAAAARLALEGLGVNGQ
Description: β-lactamase inhibition, Nitrocefin hydrolysis. Type of assay: biochemical. The conditions noted are these: Experiment 2; enzyme 1.28 nM, Nitrocefin 0.1 mM; read-out: IC50 KPC-2. The procedure: as §3, §4, §5

For a further assay, the target named is T4, TEM-1 (Escherichia coli, UniProt P62593).
T4 construct: purchased
T4 sequence (P62593 24-286 limits assumed): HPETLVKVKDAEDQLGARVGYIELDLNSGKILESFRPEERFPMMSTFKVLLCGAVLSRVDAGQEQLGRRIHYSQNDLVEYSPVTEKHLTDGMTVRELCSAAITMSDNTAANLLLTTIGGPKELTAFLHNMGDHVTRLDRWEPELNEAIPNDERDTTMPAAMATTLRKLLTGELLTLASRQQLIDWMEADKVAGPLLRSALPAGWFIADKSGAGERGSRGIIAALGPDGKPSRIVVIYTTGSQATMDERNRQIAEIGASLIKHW
Kind of assay: β-lactamase inhibition, Nitrocefin hydrolysis. In kind it is biochemical. The note with it: Experiment 2; enzyme 1 nM, Nitrocefin 0.1 mM; read-out: IC50 TEM-1. The procedure:
as §3, §4, §5

T2 sequence (P28585 29-291): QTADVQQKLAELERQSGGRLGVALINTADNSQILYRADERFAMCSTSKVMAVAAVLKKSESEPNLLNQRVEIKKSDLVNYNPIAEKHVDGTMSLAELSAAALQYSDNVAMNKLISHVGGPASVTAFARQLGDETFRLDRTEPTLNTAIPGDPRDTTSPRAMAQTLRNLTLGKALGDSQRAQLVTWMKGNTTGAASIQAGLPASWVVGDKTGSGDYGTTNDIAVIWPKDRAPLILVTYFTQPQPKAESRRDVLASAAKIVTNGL

`CN1CC2(CC(NC(=O)[C@@H]3CC[C@@H]4CN3C(=O)N4OS(=O)(=O)O)C2)C1` [Compound 6, sodium (2S,5R)-2-((2-methyl-2-azaspiro[3.3]heptan-6-yl)carbamoyl)-7-oxo-1,6-diazabicyclo[3.2.1]octan-6-yl hydrogen sulfate]: the MIC – broadly, the least concentration at which growth counts as inhibited – in assay [1] worked out at 2 µg/mL; in assay [2], 2 µg/mL; in assay [3] it was 2 µg/mL; in assay [4], 1 µg/mL; in assay [5] it was 4 µg/mL; in assay [6], 2 µg/mL. In addition, the MIC came out at 4 µg/mL in assay [7]; 2 µg/mL in assay [8]; 2 µg/mL in assay [9]; 2 µg/mL in assay [10]; 2 µg/mL in assay [11]; 2 µg/mL in [12]. Also, the MIC in assay [13] stood at 2 µg/mL; in assay [14] it was 2 µg/mL; in [15], 2 µg/mL; in assay [16], 2 µg/mL; in assay [17], 2 µg/mL; in assay [18], 4 µg/mL. Besides, the IC50 (commonly the concentration that gives 50% inhibition) at AmpC came out at 17.7 nM; on CTX-M-1, 40.8 nM; on KPC-2 it was 42.3 nM; on TEM-1, 30.1 nM.
